Patent US10602743B2, “Method of inducing drought/salt tolerance using Bacillus megaterium” (Marrone Bio Innovations, Inc., priority 2012, dated 2020)
Structures can show the parent of a compound that is named as a salt.

Each compound was assayed on Bacillus megaterium strain H491 (assay: Chemical sensitivity, Biolog Phenotypic Microarray). Conditions: not given.
Type: cell-based

| Compound | H491 susceptible to compound |
| --- | --- |
| CN1[C@@H]2CC[C@H]1C[C@@H](OC(=O)C(CO)c1ccccc1)C2 (some centres unmarked) [Atropine] | susceptible |

Same assay, conditions: Biolog Phenotypic Microarray, 25° C.

| Compound | H491 susceptible to compound |
| --- | --- |
| OB(O)O [Boric acid] | susceptible |
| Oc1c(Cl)cc(Cl)c2cccnc12 [5,7-Dichloro-8-hydroxyquinoline] | susceptible |
| CO[C@@]1(NC(=O)Cc2cccs2)C(=O)N2C(C(=O)O)=C(COC(N)=O)CS[C@@H]21 [Cefoxitin] | susceptible |
| Oc1ccccc1-c1ccccc1 [2-Phenylphenol] | susceptible |
| Acriflavine | susceptible |
| [Cl-].[Cl-].[Co+2] [Cobalt (II) chloride] | susceptible |
| O=C1C=C2C(=CCOC2O)O1 (centres unmarked) [Patulin] | susceptible |
| CCCCCCCCCCCC[N+](C)(C)CCOc1ccccc1 [Domiphen bromide] | susceptible |
| CCCCCCCCCCCC[N+](C)(C)CCCS(=O)(=O)[O-] [Lauryl sulfobetaine, N-Dodecyl-N,N-dimethyl-3-ammonio-1-propanesulfonate] | susceptible |
| Cc1cc(NS(=O)(=O)c2ccc(N)cc2)no1 [Sulfamethoxazole] | susceptible |
| CN(C)CCC=C1c2ccccc2CCc2ccccc21 [Amitriptyline] | susceptible |
| NCC(=O)NO [Glycine hydroxamate] | susceptible |
| CC1=CC(=O)c2c(O)cccc2C1=O [Plumbagin] | susceptible |
| Protamine sulfate | susceptible |
| CN[C@@H]1[C@@H](O)[C@@H](O[C@@H]2[C@@H](O)[C@H](O[C@H]3OC(CN)=CC[C@H]3N)[C@@H](N)C[C@H]2N)OC[C@]1(C)O [Sisomicin] | susceptible |
| CCn1nc(C(=O)O)c(=O)c2cc3c(cc21)OCO3 [Cinoxacin] | susceptible |
| Poly-L-lysine | susceptible |
| Nc1nc[nH]n1 [3-Amino-1,2,4-triazole] | susceptible |
| CCC[C@@H]1C[C@@H](C(=O)N[C@@H]([C@H]2O[C@H](SC)[C@H](O)[C@@H](O)[C@H]2O)[C@@H](C)O)N(C)C1 [Lincomycin] | susceptible |
| CCCCCCCC[N+](C)(CCCCCCCC)CCCCCCCC.[Cl-] [Methyltrioctylammonium chloride] | susceptible |
| CO[C@H]1/C=C/O[C@@]2(C)Oc3c(C)c([O-])c4c(O)c(cc(O)c4c3C2=O)NC(=O)/C(C)=C\C=C\[C@H](C)[C@H](O)[C@@H](C)[C@@H](O)[C@@H](C)[C@H](OC(C)=O)[C@@H]1C.[Na+] [Rifamycin SV] | susceptible |
| CCCCC(CC)CNC(=N)NC(=N)NCCCCCCNC(=N)NC(=N)NCC(CC)CCCC (centres unmarked) [Alexidine] | susceptible |
| Polymyxin B | susceptible |
| CC(Oc1ccccc1)C(=O)N[C@@H]1C(=O)N2[C@@H]1SC(C)(C)[C@@H]2C(=O)O (some centres unmarked) [Phenethicilllin] | susceptible |
| CC(=O)O[C@H]1C[C@@]2(C)[C@@H](C[C@@H](O)[C@H]3[C@@]4(C)CC[C@@H](O)[C@@H](C)[C@@H]4CC[C@@]32C)/C1=C(\CCC=C(C)C)C(=O)O [Fusidic acid, sodium salt] | susceptible |
| O=C(O)CCCc1ccc(N(CCCl)CCCl)cc1 [Chlorambucil] | susceptible |
| O=C(O)c1cc([N+](=O)[O-])cc([N+](=O)[O-])c1 [3,5-Dinitrobenzoic acid] | susceptible |
| CCCCCCCC(=O)[O-].[Na+] [Sodium Caprylate] | susceptible |
| N#CC(C#N)=NNc1ccc(OC(F)(F)F)cc1 [FCCP] | susceptible |

Same assay, conditions: Biolog Phenotypic Microarray; at a maximum concentration of 4 ug

| Compound | Resistance of H491 observed in wells containing compound |
| --- | --- |
| colistin | Resistance |
| Polymyxin B | Resistance |
